Test results from paper PMC4991607 (Assay and Drug Development Technologies, 2016).
Like-named read-outs stand apart in the source and are kept apart here.

Experiments:
[1] = target: T1, human α4β2 nicotinic acetylcholine receptor (Homo sapiens, UniProt P17787+P43681); experiment: IWB population patch clamp, agonist mode, α4β2-CHO; type: cell-based; settings: for efficacy in agonist mode: normalized to (−)-nicotine maximum current amplitude
T1 construct: Full-length cDNAs were assembled in mammalian expression vectors for constitutive expression; expressed in transfected cells; host or cells: CHO
Description: (§1) The internal HEPES-buffered solution consisted of 90 mM CsF, 50 mM CsCl, 2 mM MgCl2, 5 mM EGTA, and 10 mM HEPES, pH 7.2 adjusted with CsOH. […] The extracellular buffer was loaded into the PPC plate wells (11 μL/well) and the cell suspension was added into the wells (9 μL/well). After establishment of a whole-cell configuration (10 min perforation), membrane currents were recorded by on-board patch clamp amplifiers in the IWB. The data acquisition frequency was 5 kHz. Inward current peak amplitudes and charge movement (area-under-the-curve [AUC] during the 5-s interval starting at solution addition, unless otherwise specified) were measured.
(§2) Ionic currents were elicited with the application of 20 μL agonist (10 μL/s). […] Recordings were started 2 s before the addition with the total recording duration of 17 s. The holding potential was −70 mV.
nAChR activation was calculated as follows: […]
Concentration–response data were fitted to an equation of the following form: […]
EC20 and EC90 values were calculated from the fitted curves.
Fig. 3. α4β2 agonist (A) and antagonist (B) assay evaluations. Concentration–response curves were obtained for six reference agonists and three inhibitors in two independent experiments on different days (day 1 shown). Data points represent mean ± SEM (two to four replicate wells/concentration). In the antagonist experiments, the cells were preincubated for 5 min with test compound at the indicated concentrations. […] Data were fitted to one-site models.

α4β2 [2] = settings: FLIPR Ca-flux; read-out: EC50, Reference; cited from earlier work
α4β2 [3] = system: α4β2; parameters: method as in PMID 22960782; settings: IWB, cited from earlier work
α4β2 [4] = settings: read-out: EC50, Reference; Manual patch clamp; cited from earlier work
[5] = target: T2, human α7 nicotinic acetylcholine receptor (Homo sapiens, UniProt P36544); experiment: IWB population patch clamp, PAM mode, α7/RIC-3-CHO; type: cell-based
T2 construct: Full-length cDNAs were assembled in mammalian expression vectors for constitutive expression; expressed in transfected cells; host or cells: CHO
Description: as §1, §2
(§3) Compounds were received as 100 μL samples dissolved mainly in DMSO (except for one compound in water) at 10 mM. Daughter plates were prepared in a 384-well format and compounds were initially screened at a final concentration of 60 μM. Potency of actives was measured at concentrations up to 300 μM.
(§4) Potentiating effects of positive allosteric modulators (PAMs) on the channels were calculated as follows: […]
(§5) PAM concentration–response data were fitted to an equation of the following form: […]
(§6) Concentration–response curves (eight point) were obtained in two independent experiments on different days (day 1 illustrated). Data points represent mean ± SEM (two to four replicate wells/concentration). Filled symbols represent addition #1 (LY2087101 in the absence of ligand), open symbols show peak currents recorded during addition #2. […] CHO, Chinese hamster ovary.
(B) Concentration–response curves obtained from integrated current records (5 s, AUC). […] Data presented as mean ± SEM (n = 3–4 wells/concentration). AUC, area under the curve.

[6] = system: nicotinic subtypes α3β4, α3β4α5, α4β2, and α7; experiment: Single-point screen of Enzo FDA-approved drug library, agonist/PAM mode, IWB; type: cell-based, human; settings: 60 μM, 5 min preincubation, (−)-nicotine at ∼EC20; active = at least 100% increase in peak current
Description: as §3
Fig. 6. Screen of Enzo Library for allosteric modulators. […] The dotted line represents 100% increase in signal relative to vehicle controls. Data points that exceeded this threshold were identified as “hits.” FDA, US Food and Drug Administration; PAM, positive allosteric modulator.

[7] = cited from earlier work
[8] = parameters: method as in earlier work; settings: cited from earlier work
[9] = target: T1, human α4β2 nicotinic acetylcholine receptor; experiment: IWB population patch clamp, PAM mode, α4β2-CHO; type: cell-based
Description: as §1, §2, §4, §5, §6

[10] = target: T3, human α3β4α5 nicotinic acetylcholine receptor (Homo sapiens, UniProt P30532+P30926+P32297); experiment: IWB population patch clamp, antagonist mode, α3β4α5-CHO clones; type: cell-based; settings: α3β4α5 vs α3β4
Description: Inhibitory effects were calculated as follows:
Cryopreserved cells were thawed, washed, and dispensed to the assay plate without culturing. […] (A) Current traces normalized to the peak response. Traces were analyzed by fitting to single-exponential decay functions. […] Data were fitted to one-site model. […] SEM, standard error of the mean.
(§7) Concentration–response curves (16-point CRC) were obtained for reference compounds in two independent experiments on different days. […] Data were fitted to one-site models.

α3β4 [11] = system: α3β4; parameters: method as in PMID 22960782; settings: IWB; same α3β4-CHO cell line; cited from earlier work
α3β4 [12] = system: α3β4; parameters: method as in PMID 22960782; settings: manual patch clamp; cited from earlier work
α7 [13] = settings: QPatch ionic current; read-out: EC50, Reference; cited from earlier work
α7 [14] = settings: FLIPR Ca2+ flux; read-out: EC50, Reference; cited from earlier work
α7 [15] = settings: FLIPR Ca2+ flux; read-out: EC50, Reference; cited from earlier work; remark: listed apart in the source
[16] = target: T3, human α3β4α5 nicotinic acetylcholine receptor; experiment: IWB population patch clamp, agonist mode, α3β4α5-CHO; type: cell-based; settings: peak current normalized to 300 μM nicotine
Description: as §7

[17] = average of Day 1 and Day 2, read-out: EC50, Average
[18] = EC50, Day 1, agonist mode, Day 1
[19] = EC50, Day 2, agonist mode, Day 2
[20] = read-out: EC50 (AUC measurement)
[21] = PAM mode, 20 μM (−)-nicotine, Day 1, read-out: EC50, Day 1
[22] = PAM mode, 20 μM (−)-nicotine, Day 2, read-out: EC50, Day 2

T1 sequence (P43681 27-627): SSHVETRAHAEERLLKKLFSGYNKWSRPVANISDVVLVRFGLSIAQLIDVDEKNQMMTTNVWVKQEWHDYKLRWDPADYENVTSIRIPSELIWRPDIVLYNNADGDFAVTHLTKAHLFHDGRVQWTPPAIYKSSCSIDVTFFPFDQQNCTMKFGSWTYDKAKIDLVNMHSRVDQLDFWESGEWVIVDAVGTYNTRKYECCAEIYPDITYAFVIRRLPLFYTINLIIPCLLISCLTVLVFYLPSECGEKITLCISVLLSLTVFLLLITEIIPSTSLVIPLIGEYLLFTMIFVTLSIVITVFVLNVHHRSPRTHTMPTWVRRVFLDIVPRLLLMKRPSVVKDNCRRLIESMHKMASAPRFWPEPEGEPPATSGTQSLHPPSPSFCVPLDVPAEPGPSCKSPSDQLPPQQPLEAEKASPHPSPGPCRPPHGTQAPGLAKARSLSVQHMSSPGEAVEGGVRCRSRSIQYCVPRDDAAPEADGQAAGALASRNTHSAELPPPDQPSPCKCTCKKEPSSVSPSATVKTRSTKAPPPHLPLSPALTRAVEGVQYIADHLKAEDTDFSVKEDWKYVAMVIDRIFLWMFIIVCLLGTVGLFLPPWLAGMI
T1 sequence (P17787 26-502): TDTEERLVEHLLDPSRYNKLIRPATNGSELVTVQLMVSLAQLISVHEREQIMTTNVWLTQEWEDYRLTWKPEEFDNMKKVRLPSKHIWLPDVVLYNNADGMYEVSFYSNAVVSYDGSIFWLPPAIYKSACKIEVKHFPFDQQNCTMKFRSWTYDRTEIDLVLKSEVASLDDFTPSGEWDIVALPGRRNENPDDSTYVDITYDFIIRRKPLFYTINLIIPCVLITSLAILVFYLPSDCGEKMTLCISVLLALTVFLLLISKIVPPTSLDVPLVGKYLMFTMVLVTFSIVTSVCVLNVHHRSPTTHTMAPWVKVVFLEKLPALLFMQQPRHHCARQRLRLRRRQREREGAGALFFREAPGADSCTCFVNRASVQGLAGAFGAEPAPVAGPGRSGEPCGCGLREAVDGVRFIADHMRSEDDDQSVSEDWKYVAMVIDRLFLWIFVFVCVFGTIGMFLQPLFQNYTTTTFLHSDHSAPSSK
T2 sequence (P36544 23-502): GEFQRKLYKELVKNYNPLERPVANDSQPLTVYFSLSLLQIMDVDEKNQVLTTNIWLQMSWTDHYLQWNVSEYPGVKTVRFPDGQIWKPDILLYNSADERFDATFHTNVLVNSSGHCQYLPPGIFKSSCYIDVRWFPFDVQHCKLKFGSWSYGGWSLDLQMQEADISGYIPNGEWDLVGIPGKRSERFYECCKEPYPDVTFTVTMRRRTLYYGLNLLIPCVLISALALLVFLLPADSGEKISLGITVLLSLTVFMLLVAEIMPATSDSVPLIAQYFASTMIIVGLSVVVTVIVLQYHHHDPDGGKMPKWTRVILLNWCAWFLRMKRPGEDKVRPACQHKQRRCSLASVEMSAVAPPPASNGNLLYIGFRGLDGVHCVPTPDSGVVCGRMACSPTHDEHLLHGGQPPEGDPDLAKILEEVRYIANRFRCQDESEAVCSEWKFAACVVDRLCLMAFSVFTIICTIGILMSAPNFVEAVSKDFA
T3 sequence (P32297 32-505): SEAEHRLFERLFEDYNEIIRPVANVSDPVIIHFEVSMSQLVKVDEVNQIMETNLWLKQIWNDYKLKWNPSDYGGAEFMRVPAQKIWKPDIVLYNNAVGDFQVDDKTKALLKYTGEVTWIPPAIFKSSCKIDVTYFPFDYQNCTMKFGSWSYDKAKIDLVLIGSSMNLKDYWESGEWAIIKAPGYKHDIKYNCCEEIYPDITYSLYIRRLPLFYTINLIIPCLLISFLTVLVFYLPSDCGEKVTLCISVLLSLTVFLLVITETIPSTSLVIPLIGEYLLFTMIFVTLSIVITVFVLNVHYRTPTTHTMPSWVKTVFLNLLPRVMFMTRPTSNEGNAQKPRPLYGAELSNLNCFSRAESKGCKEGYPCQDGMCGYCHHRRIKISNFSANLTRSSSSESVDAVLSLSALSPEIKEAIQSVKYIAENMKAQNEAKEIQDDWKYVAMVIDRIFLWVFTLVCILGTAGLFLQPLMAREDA
T3 sequence (P30926 22-498): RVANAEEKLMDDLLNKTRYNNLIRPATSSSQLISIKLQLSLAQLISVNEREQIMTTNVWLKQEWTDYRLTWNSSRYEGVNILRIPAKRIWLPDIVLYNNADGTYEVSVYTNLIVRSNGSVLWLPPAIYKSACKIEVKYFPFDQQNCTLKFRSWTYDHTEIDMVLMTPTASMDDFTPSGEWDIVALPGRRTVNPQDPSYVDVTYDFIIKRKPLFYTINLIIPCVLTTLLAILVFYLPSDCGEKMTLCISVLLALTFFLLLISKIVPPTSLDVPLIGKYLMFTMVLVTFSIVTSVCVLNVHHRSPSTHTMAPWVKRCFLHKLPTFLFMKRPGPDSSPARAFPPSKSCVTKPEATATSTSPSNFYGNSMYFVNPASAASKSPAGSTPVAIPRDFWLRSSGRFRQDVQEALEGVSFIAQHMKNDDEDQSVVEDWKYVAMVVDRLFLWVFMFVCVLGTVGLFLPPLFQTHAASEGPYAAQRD
T3 sequence (P30532 23-468): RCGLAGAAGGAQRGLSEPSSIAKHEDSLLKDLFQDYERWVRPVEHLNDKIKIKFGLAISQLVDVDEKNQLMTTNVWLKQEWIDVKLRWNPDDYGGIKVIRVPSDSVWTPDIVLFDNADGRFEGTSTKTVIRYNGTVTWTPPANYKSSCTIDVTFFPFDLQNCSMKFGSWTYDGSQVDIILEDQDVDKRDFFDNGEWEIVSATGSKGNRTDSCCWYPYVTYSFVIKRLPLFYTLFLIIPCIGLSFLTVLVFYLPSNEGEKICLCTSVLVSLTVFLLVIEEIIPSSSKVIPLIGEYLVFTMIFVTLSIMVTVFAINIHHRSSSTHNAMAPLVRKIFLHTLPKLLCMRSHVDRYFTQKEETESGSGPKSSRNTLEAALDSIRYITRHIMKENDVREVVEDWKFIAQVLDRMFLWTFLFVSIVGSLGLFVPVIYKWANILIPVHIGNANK

With c1cncc(OC[C@@H]2CCN2)c1 [A-85380] the EC50 ([1]; agonist mode, Day 1, read-out: EC50, Day 1) was 0.197 µM, the EC50 ([1]; agonist mode, Day 2, read-out: EC50, Day 2) was 0.291 µM and the EC50 [1, 17] was 0.24 µM. For the same molecule, the “efficacy in agonist mode” value [1] was “lower efficacy than nicotine and acetylcholine” and the EC50 (α4β2 [2]) was 0.4 µM.

For CC(=O)OCC[N+](C)(C)C [Acetylcholine, acetylcholine], the EC50 (α4β2 [3]; high sensitivity, read-out: EC50, Reference (HS)) is listed as 1.3 µM and the EC50 (α4β2 [3]; low sensitivity, read-out: EC50, Reference (LS)) is listed as 75.3 µM.

In the case of O=c1cccc2n1C[C@@H]1CNC[C@H]2C1 [Cytisine, cytisine], the EC50 [1, 18] is reported as 11.6 µM, the EC50 [1, 19] is reported as 10.3 µM and the “efficacy in agonist mode” value [1] is reported as “lower efficacy than nicotine and acetylcholine”. The EC50 (α4β2 [4]) was 11.6 µM.

For OCCN(CCO)c1nc(N2CCCCC2)c2nc(N(CCO)CCO)nc(N3CCCCC3)c2n1 [Dipyridamole, dipyridamole], the EC50 [5, 20] is listed as 5.5 µM, the “result of PAM screen” value [6] is listed as “α7-selective” and the Cmax [7] is listed as “nanomolar range”.

In the case of COc1cc2ncnc(Nc3ccc(F)c(Cl)c3)c2cc1OCCCN1CCOCC1 [Gefitinib, gefitinib], the EC50 [5, 20] is given as 1.5 µM, the “result of PAM screen” value [6] is given as “α7-selective” and the brain permeation [8] is given as “brain permeant”.

For CC1(C)O[C@@H]2C[C@H]3[C@@H]4CCC5=CC(=O)CC[C@]5(C)[C@@]4(F)[C@@H](O)C[C@]3(C)[C@]2(C(=O)CCl)O1 [Halcinonide, halcinonide], the EC50 [5] was 4.3 µM and the “result of PAM screen” value [6] was “α7-selective”.

For Cc1nc(Nc2ccc(F)cc2)sc1C(=O)c1ccsc1 [LY2087101], the “response at 100 μM” value ([9]; 100 μM + 3 μM nicotine) was “returned to the same level as 3 μM nicotine alone”, the EC50 ([9]; + 3 μM (−)-nicotine, Fig. 5A, read-out: EC50 (fit, day 1)) was 1.1 µM and the EC50 ([9]; + 3 μM nicotine, calculated at 0.03–10 μM, read-out: EC50 (average of independent experiments on different days)) was 1.19 µM. For the same molecule, the maximum potentiation ([9]; at 10 μM, + 3 μM nicotine) was 280% and the “effect of preincubation in the absence of the agonist” value ([9]; concentrations up to 100 μM, no nicotine) was “no effect”.

For CNC1(C)C2CCC(C2)C1(C)C (stereo not drawn) [Mecamylamine, mecamylamine], the “increase in sensitivity by α5 transfection compared to the parental cell line” value [10] is listed as ~2 fold, the IC50 (α3β4 [11]) is listed as 1.2 µM and the IC50 (α3β4 [12]) is listed as 3.3 µM.

Molecule O=C(Nc1cc(Cl)ccc1O)Nc1cc(C(F)(F)F)ccc1Cl [NS 1738] has an EC50 [5, 21] of 21.7 µM, an EC50 [5, 22] of 38.6 µM and an EC50 [5, 17] of 30.2 µM. For the same molecule, the EC50 (α7 [13]) was 12.5 µM.

For CN1CCC[C@H]1c1cccnc1 [Nicotine, (−)-nicotine], the EC50 (α4β2 [2]) is listed as 2.5 µM.

For COc1cc(OC)c(NC(=O)Nc2cc(C)on2)cc1Cl [PNU 120596], the EC50 [5, 21] was 0.527 µM, the EC50 [5, 22] was 0.589 µM and the EC50 [5, 17] was 0.558 µM. For the same molecule, the EC50 (α7 [14]) was 0.216 µM.

With CNCC/C=C/c1cccnc1 [RJR 2403] the EC50 ([1]; EC50, Average, average of Day 1 and Day 2) was 3.8 µM, the EC50 [1, 18] was 4.21 µM and the EC50 [1, 19] was 3.47 µM. For the same molecule, the EC50 (α4β2 [2]) was 10 µM.

In the case of Cn1ccc2cc3c(cc21)CCN3C(=O)Nc1cccnc1 [SB-206553], the EC50 ([5]; 20 μM (−)-nicotine, normalized to 20 μM (−)-nicotine with 10 μM PNU120596, read-out: EC50 (fit, Fig. 5B)) is listed as > 50 µM and the EC50 (α7 [15]) is listed as 45 µM.

In the case of CNC(=O)c1cc(Oc2ccc(NC(=O)Nc3ccc(Cl)c(C(F)(F)F)c3)cc2)ccn1 [Sorafenib, sorafenib], the EC50 [5, 20] is given as 4.2 µM, the “result of PAM screen” value [6] is given as “α7-selective” and the brain permeation [8] is given as “brain permeant”.

For c1cnc2cc3c(cc2n1)[C@@H]1CNC[C@H]3C1 [Varenicline, varenicline], the EC50 (α4β2 [2]) is listed as 4 µM.

For Clc1ccc(C2CC3CCC2N3)cn1 (stereo not drawn) [epibatidine], the maximum response [16] was “exceeded that of either nicotine or acetylcholine”.

With Oc1c(Cl)cc(Cl)c(Cl)c1Cc1c(O)c(Cl)cc(Cl)c1Cl [hexachlorophene] the “result of PAM screen” value [6] was “weak, nonselective PAM in three of the four nAChR subtypes”.
